From patent US20100285959A1, “HERBICIDAL MIXTURES” (priority 2006, published 2010)

Key:
Russian thistle (SASKR) = assay: Test 4 field trial, postemergence; format: in vivo, Salsola kali; parameters: scale not given here; details: clodinafop 56 or fenoxaprop 90 g a.i./ha alone
Experimental: (§1) A field trial was conducted to evaluate the effects of mixtures of Compound 2 with commercial herbicides on spring wheat (TRZAS, Triticum aestivum L.) and several weed species. Wheat seeds (cv. ‘AC Intrepid’) were planted in late spring season, 3.8 cm deep in a loam soil having 2.7% organic matter and a pH of 7. Plots were 6 m long by 2.5 m wide. The field was managed using no-till practices. The plots were arranged in a randomized complete block design with each treatment being replicated four times. Treatments were applied postemergence 25 days after planting using a backpack sprayer delivering a spray volume of 55 L/ha using a pressure of 276 kPa. […] Compound 2 and clodinafop treatments, alone and in combination, also included a surfactant. Weed species present in the experimental plots in sufficient quantity to be evaluated included wild oat (AVEFA, Avena fatua L.), common lambsquarters (CHEAL, Chenopodium album L.), kochia (KCHSC, Kochia scoparia (L.) Schrad.), wild buckwheat (POLCO, Polygonum convolvulus L.), Russian thistle (SASKR, Salsola kali L. ssp. ruthenica (Iljin) Soo), and field pennycress (THLAR, Thlaspi arvense L.). […] Common lambsquarters was evaluated only at 14 days after application. […] Results are the means of the four replicates.

wild buckwheat (POLCO) = assay: Test 4 field trial, postemergence; format: in vivo, Polygonum convolvulus; details: clodinafop 56 or fenoxaprop 90 g a.i./ha alone
Experimental: as §1

wild oat (AVEFA) = assay: Test 4 field trial, postemergence; format: in vivo, Avena fatua; parameters: scale not given here; details: clodinafop 56 or fenoxaprop 90 g a.i./ha alone
Experimental: as §1

spring wheat (TRZAS) = assay: Test 4 field trial, postemergence; details: clodinafop 56 or fenoxaprop 90 g a.i./ha alone
Experimental: as §1

field pennycress (THLAR) = assay: Test 4 field trial, postemergence; format: in vivo, Thlaspi arvense; parameters: scale not given here; details: clodinafop 56 or fenoxaprop 90 g a.i./ha alone
Experimental: as §1

[1] = system: common lambsquarters (CHEAL); assay: Test 4 field trial, postemergence; format: in vivo, Chenopodium album; details: clodinafop 56 or fenoxaprop 90 g a.i./ha alone
wheat (TRZAW) = assay: Test 28 greenhouse, post- and preemergence; format: in vivo, Triticum aestivum; details: 26 DAA
Experimental: (§2) A greenhouse test was conducted to evaluate the effects on the plant species corn (ZEAMD, Zea mays ssp. indentata), sorghum (SORVU, Sorghum vulgare L.), dry-seeded rice (ORYSA, Oryza sativa L.), wheat (TRZAW, Triticum aestivum L.), ivyleaf morningglory (IPOHE, Ipomoea hederacea (L.) JACQ.), and barnyardgrass (ECHCG, Echinochloa crus-galli (L.) P. BEAUV.), of mixtures of Compound 2 with isoxadifen-ethyl. Corn, sorghum, rice, wheat, ivyleaf morningglory and barnyardgrass seeds were planted in RediEarth, a commercial potting medium. […] Corn plants were treated postemergence at the V2 growth stage, and sorghum, rice, wheat, ivyleaf morningglory, and barnyardgrass plants were treated postemergence at the 3-leaf stage. […] Each treatment was replicated three times. […] Plants were watered as needed.

barnyardgrass (ECHCG) [2] = assay: Test 32 greenhouse, simulated flooded rice culture; format: in vivo, Echinochloa crus-galli; parameters: scale not given here; details: postemergence to flood, 21 DAA
Experimental: (§3) A greenhouse trial was conducted to evaluate the effects of Compound 1 and isoxadifen-ethyl at different ratios in simulated flooded rice culture. Plastic pots (11-cm diameter) were partially filled with non-sterilized Tama silt loam soil containing a 15:57:28 ratio of sand, silt and clay and 2.9% organic matter. Seeds of Heteranthera limosa (ducksalad; HETLI), Cyperus difformis (smallflower umbrella sedge; CYPDI), one stand of Echinochloa crus-galli (barnyardgrass; ECHCG), and one stand of four rice seedlings (Oryza sativa cv. ‘M202’; ORYSA) were planted into a single 11-cm diameter pot for each rate and mixture of rates. To obtain this planting, C. difformis and H. limosa seeds were planted separately on the surface soil layer at particular locations within each pot. Water levels were brought to a puddled condition above the soil surface directly after planting. E. crus-galli and rice seeds were planted in cavity trays in the silt loam soil and transplanted at the 1.5 and 2.0 leaf stage, respectively. E. crus-galli and rice plants were transplanted to about 2-cm depth by transferring plugs from the cavity trays. Plantings were sequential so that these plant species all reached the 2.0- to 2.5-leaf stage in the 11-cm diameter pot at time of treatment. Plantings were established and maintained in a greenhouse with day and night temperatures of about 29.5 and 26.7° C. respectively; supplemental balanced lighting was provided to maintain a 16-hour photoperiod. Pots were fertilized periodically with a 200 ppm solution of commercial Scotts Peters® Professional® General Purpose 20-20-20 Water Soluble Fertilizer, amended to 10 ppm with a commercial iron-chelate micronutrient fertilizer. The solution was supplied at time of watering via a liquid fertilizer injector.
(§4) At treatment time, test pots were flooded to 3 cm above the soil surface and maintained at that water depth for the duration of the test. Chemical treatments were formulated in acetone and applied directly to the paddy water (i.e., postemergence to flood). Make-up volumes of acetone were added to ensure that all pots were treated with a consistent volume. Test pots were maintained in the greenhouse. A randomized complete block design was employed. Five replicates of each treatment, alone and in mixture, were used. Each species was visually evaluated for treatment effects by comparing those treated to untreated controls and rated for plant response after 21 days.

sorghum (SORVU) = assay: Test 28 greenhouse, postemergence; format: in vivo, Sorghum vulgare; details: 26 DAA
Experimental: as §2

[3] = system: ivyleaf morningglory (IPOHE); assay: Test 28 greenhouse, postemergence; format: in vivo, Ipomoea hederacea; details: 26 DAA
Experimental: as §2

[4] = system: smallflower umbrella sedge (CYPDI); assay: Test 32 greenhouse, simulated flooded rice culture; format: in vivo, Cyperus difformis; details: postemergence to flood, 21 DAA
Experimental: as §3, §4

corn (ZEAMD) = assay: Test 28 greenhouse, post- and preemergence; format: in vivo, Zea mays ssp. indentata; details: 26 DAA
Experimental: as §2

dry-seeded rice (ORYSA) = assay: Test 28 greenhouse, postemergence; format: in vivo, Oryza sativa; details: 26 DAA
Experimental: as §2

ducksalad (HETLI) = assay: Test 32 greenhouse, simulated flooded rice culture; format: in vivo, Heteranthera limosa; parameters: scale not given here; details: postemergence to flood, 21 DAA
Experimental: as §3, §4

barnyardgrass (ECHCG) [5] = assay: Test 28 greenhouse, postemergence; format: in vivo, Echinochloa crus-galli; details: 26 DAA
Experimental: as §2

rice (ORYSA) = assay: Test 32 greenhouse, simulated flooded rice culture; format: in vivo, Oryza sativa; details: postemergence to flood, 21 DAA
Experimental: as §3, §4

[6] = postemergence, Isoxadifen-ethyl 64 g a.i./ha
[7] = postemergence, Isoxadifen-ethyl 128 g a.i./ha
[8] = postemergence, Isoxadifen-ethyl 256 g a.i./ha
[9] = postemergence, Isoxadifen-ethyl 512 g a.i./ha
[10] = postemergence, Isoxadifen-ethyl 1024 g a.i./ha
[11] = preemergence, Isoxadifen-ethyl 64 g a.i./ha
[12] = preemergence, Isoxadifen-ethyl 128 g a.i./ha
[13] = preemergence, Isoxadifen-ethyl 256 g a.i./ha
[14] = preemergence, Isoxadifen-ethyl 512 g a.i./ha
[15] = preemergence, Isoxadifen-ethyl 1024 g a.i./ha
[16] = Isoxadifen-ethyl 31.25 g a.i./ha
[17] = Isoxadifen-ethyl 62.5 g a.i./ha
[18] = Isoxadifen-ethyl 1000 g a.i./ha
[19] = Isoxadifen-ethyl 1500 g a.i./ha
[20] = Isoxadifen-ethyl 1024 g a.i./ha

## CC(Oc1ccc(Oc2nc3ccc(Cl)cc3o2)cc1)C(=O)O (stereo not shown) [Fenoxaprop]
Russian thistle (SASKR); 14 DAA
  SASKR Obs: 0
Russian thistle (SASKR); 35 DAA
  SASKR Obs: 0
Wild buckwheat (POLCO); 14 DAA
  POLCO Obs: 0
Wild buckwheat (POLCO); 35 DAA
  POLCO Obs: 0
Wild oat (AVEFA); 14 DAA
  AVEFA Obs: 96
Wild oat (AVEFA); 35 DAA
  AVEFA Obs: 96
Wild oat (AVEFA); 55 DAA
  AVEFA Obs: 98
Spring wheat (TRZAS); 14 DAA
  TRZAS Obs: 0
Spring wheat (TRZAS); 35 DAA
  TRZAS Obs: 0
Spring wheat (TRZAS); 55 DAA
  TRZAS Obs: 0
Field pennycress (THLAR); 14 DAA
  THLAR Obs: 0
Field pennycress (THLAR); 35 DAA
  THLAR Obs: 0
[1]; 14 DAA
  CHEAL Obs: 0
[1]; 35 DAA
  CHEAL Obs: 0

## CCOC(=O)C1=NOC(c2ccccc2)(c2ccccc2)C1 [Isoxadifen-ethyl]
Wheat (TRZAW); [6]
  TRZAW Obs: 0%
Wheat (TRZAW); [7]
  TRZAW Obs: 0%
Wheat (TRZAW); [8]
  TRZAW Obs: 0%
Wheat (TRZAW); [9]
  TRZAW Obs: 0%
Wheat (TRZAW); [10]
  TRZAW Obs: 0%
Wheat (TRZAW); [11]
  TRZAW Obs: 0%
Wheat (TRZAW); [12]
  TRZAW Obs: 0%
Wheat (TRZAW); [13]
  TRZAW Obs: 0%
Wheat (TRZAW); [14]
  TRZAW Obs: 0%
Wheat (TRZAW); [15]
  TRZAW Obs: 0%
Barnyardgrass (ECHCG) [2]; [16]
  ECHCG Obs: 4
Barnyardgrass (ECHCG) [2]; [17]
  ECHCG Obs: 9
Barnyardgrass (ECHCG) [2]; Isoxadifen-ethyl 125 g a.i./ha
  ECHCG Obs: 15
Barnyardgrass (ECHCG) [2]; Isoxadifen-ethyl 250 g a.i./ha
  ECHCG Obs: 10
Barnyardgrass (ECHCG) [2]; Isoxadifen-ethyl 500 g a.i./ha
  ECHCG Obs: 5
Barnyardgrass (ECHCG) [2]; [18]
  ECHCG Obs: 8
Barnyardgrass (ECHCG) [2]; [19]
  ECHCG Obs: 9
Sorghum (SORVU); Isoxadifen-ethyl 64 g a.i./ha
  SORVU Obs: 0%
Sorghum (SORVU); Isoxadifen-ethyl 128 g a.i./ha
  SORVU Obs: 0%
Sorghum (SORVU); Isoxadifen-ethyl 256 g a.i./ha
  SORVU Obs: 0%
Sorghum (SORVU); Isoxadifen-ethyl 512 g a.i./ha
  SORVU Obs: 0%
Sorghum (SORVU); [20]
  SORVU Obs: 0%
[3]; Isoxadifen-ethyl 64 g a.i./ha
  IPOHE Obs: 0
[3]; Isoxadifen-ethyl 128 g a.i./ha
  IPOHE Obs: 0
[3]; Isoxadifen-ethyl 256 g a.i./ha
  IPOHE Obs: 0
[3]; Isoxadifen-ethyl 512 g a.i./ha
  IPOHE Obs: 0
[3]; [20]
  IPOHE Obs: 0
[4]; [16]
  CYPDI Obs: 28
[4]; [17]
  CYPDI Obs: 24
[4]; Isoxadifen-ethyl 125 g a.i./ha
  CYPDI Obs: 84
[4]; Isoxadifen-ethyl 250 g a.i./ha
  CYPDI Obs: 59
[4]; Isoxadifen-ethyl 500 g a.i./ha
  CYPDI Obs: 49
[4]; [18]
  CYPDI Obs: 53
[4]; [19]
  CYPDI Obs: 59
Corn (ZEAMD); [6]
  ZEAMD Obs: 0
Corn (ZEAMD); [7]
  ZEAMD Obs: 0
Corn (ZEAMD); [8]
  ZEAMD Obs: 0
Corn (ZEAMD); [9]
  ZEAMD Obs: 0
Corn (ZEAMD); [10]
  ZEAMD Obs: 0
Corn (ZEAMD); [11]
  ZEAMD Obs: 0
Corn (ZEAMD); [12]
  ZEAMD Obs: 0
Corn (ZEAMD); [13]
  ZEAMD Obs: 0
Corn (ZEAMD); [14]
  ZEAMD Obs: 0
Corn (ZEAMD); [15]
  ZEAMD Obs: 0
dry-seeded rice (ORYSA); Isoxadifen-ethyl 64 g a.i./ha
  ORYSA Obs: 0
dry-seeded rice (ORYSA); Isoxadifen-ethyl 128 g a.i./ha
  ORYSA Obs: 0
dry-seeded rice (ORYSA); Isoxadifen-ethyl 256 g a.i./ha
  ORYSA Obs: 0
dry-seeded rice (ORYSA); Isoxadifen-ethyl 512 g a.i./ha
  ORYSA Obs: 0
dry-seeded rice (ORYSA); [20]
  ORYSA Obs: 0
Ducksalad (HETLI); [16]
  HETLI Obs: 10
Ducksalad (HETLI); [17]
  HETLI Obs: 29
Ducksalad (HETLI); Isoxadifen-ethyl 125 g a.i./ha
  HETLI Obs: 35
Ducksalad (HETLI); Isoxadifen-ethyl 250 g a.i./ha
  HETLI Obs: 19
Ducksalad (HETLI); Isoxadifen-ethyl 500 g a.i./ha
  HETLI Obs: 23
Ducksalad (HETLI); [18]
  HETLI Obs: 25
Ducksalad (HETLI); [19]
  HETLI Obs: 36
Barnyardgrass (ECHCG) [5]; Isoxadifen-ethyl 64 g a.i./ha
  ECHCG Obs: 0
Barnyardgrass (ECHCG) [5]; Isoxadifen-ethyl 128 g a.i./ha
  ECHCG Obs: 0
Barnyardgrass (ECHCG) [5]; Isoxadifen-ethyl 256 g a.i./ha
  ECHCG Obs: 0
Barnyardgrass (ECHCG) [5]; Isoxadifen-ethyl 512 g a.i./ha
  ECHCG Obs: 0
Barnyardgrass (ECHCG) [5]; [20]
  ECHCG Obs: 0
Rice (ORYSA); [16]
  ORYSA Obs: 2%
Rice (ORYSA); [17]
  ORYSA Obs: 5%
Rice (ORYSA); Isoxadifen-ethyl 125 g a.i./ha
  ORYSA Obs: 11%
Rice (ORYSA); Isoxadifen-ethyl 250 g a.i./ha
  ORYSA Obs: 7%
Rice (ORYSA); Isoxadifen-ethyl 500 g a.i./ha
  ORYSA Obs: 5%
Rice (ORYSA); [18]
  ORYSA Obs: 5%
Rice (ORYSA); [19]
  ORYSA Obs: 10%
